PubChem BioAssay AID248 (DTP/NCI, 2004)
Where “and” joins values, the source holds several entries; their conditions need not be identical. Identical values can stand only once. Inconclusive results and toxic doses are left out. Cut-off read from the data, not from the text of the source: active = T/C of 150% or more; inactive = T/C below 125%.

Tested on: L1210 leukemia ip in BDF1 mice, survival T/C
Assay: NCI In Vivo Anticancer Drug Screen. Data for tumor model L1210 Leukemia (intraperitoneal) in B6D2F1 (BDF1) mice
Settings: endpoint: mean survival time, higher = longer survival
Method in brief: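 Tumor was transplanted into mice, which were then dosed with test compound or vehicle alone. Survival was recorded for each group, and the treated figure was expressed relative to the control figure.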

[1] = dose: 100.0 mg/kg/injection, schedule: Q04DX003 (ip), vehicle: Klucel (hydroxypropylcellulose) (HPC)
[2] = dose: 200.0 mg/kg/injection, schedule: Q04DX003 (ip), vehicle: Klucel (hydroxypropylcellulose) (HPC)
[3] = dose: 400.0 mg/kg/injection, schedule: Q04DX003 (ip), vehicle: Klucel (hydroxypropylcellulose) (HPC)
[4] = dose: 50.0 mg/kg/injection, schedule: Q01DX001 (ip), vehicle: saline
[5] = dose: 50.0 mg/kg/injection, schedule: Q01DX009 (ip), vehicle: Klucel (hydroxypropylcellulose) (HPC)
[6] = dose: 100.0 mg/kg/injection, schedule: Q01DX009 (ip), vehicle: Klucel (hydroxypropylcellulose) (HPC)
[7] = dose: 100.0 mg/kg/injection, schedule: Q04DX003 (ip), vehicle: saline
[8] = dose: 200.0 mg/kg/injection, schedule: Q01DX001 (ip), vehicle: saline
[9] = dose: 200.0 mg/kg/injection, schedule: Q01DX009 (ip), vehicle: Klucel (hydroxypropylcellulose) (HPC)
[10] = dose: 200.0 mg/kg/injection, schedule: Q04DX003 (ip), vehicle: saline
[11] = dose: 100.0 mg/kg/injection, schedule: Q01DX001 (ip), vehicle: saline
[12] = dose: 100.0 mg/kg/injection, schedule: Q01DX009 (ip), vehicle: saline
[13] = dose: 200.0 mg/kg/injection, schedule: Q01DX009 (ip), vehicle: saline
[14] = dose: 400.0 mg/kg/injection, schedule: Q04DX003 (ip), vehicle: saline
[15] = dose: 400.0 mg/kg/injection, schedule: Q01DX001 (ip), vehicle: saline
[16] = dose: 75.0 mg/kg/injection, schedule: Q01DX009 (ip), vehicle: saline

Measured: T/C

Nc1nc2nc(N=Nc3ccc(S(N)(=O)=O)cc3)[nH]c2c(=O)[nH]1
inactive: [1] 96 % of control | [2] 93 % of control | [3] 99 % of control

FC(F)(F)C(F)(F)C1=NS1(C(F)(C(F)(F)F)C(F)(F)F)C(F)(C(F)(F)F)C(F)(F)F
inactive: dose: 100.0 mg/kg/injection, schedule: Q01DX001 (ip), vehicle: acetone 94 % of control | dose: 200.0 mg/kg/injection, schedule: Q01DX001 (ip), vehicle: acetone 103 % of control | dose: 400.0 mg/kg/injection, schedule: Q01DX001 (ip), vehicle: acetone 101 % of control

O=C(O)CCCl
inactive: [4] 90 % of control | [5] 98 % of control | [6] 92 % of control | [7] 104 % of control | [8] 89 % of control | [9] 92 % of control | [10] 98 % of control

Cn1c(N)c(N=Nc2ccc(S(=O)(=O)Nc3ccccn3)cc2)c(=O)n(C)c1=O
inactive: dose: 100.0 mg/kg/injection, schedule: Q01DX001 (ip), vehicle: carboxymethylcellulose (CMC) 98 % of control | dose: 200.0 mg/kg/injection, schedule: Q01DX001 (ip), vehicle: carboxymethylcellulose (CMC) 93 % of control | dose: 400.0 mg/kg/injection, schedule: Q01DX001 (ip), vehicle: carboxymethylcellulose (CMC) 93 % of control

CCc1occ(C(=O)N2Cc3cc4ccccc4nc3C2)c1C1SCCS1
inactive: [11] 89 % of control | [8] 92 % of control

O=C(O)c1ccc2c([N+](=O)[O-])cccc2n1
inactive: [6] 100 % of control | [1] 96 % of control | [9] 97 % of control | [2] 107 % of control | [3] 93 % of control

COCBr
inactive: [12] 110 % of control | [7] 103 % of control | [13] 101 % of control | [10] 103 % of control | [14] 94 % of control

CCCCN(CCCC)CCNc1ccc(Cl)c2oc3cc(C)ccc3c(=O)c12
inactive: dose: 12.5 mg/kg/injection, schedule: Q01DX009 (ip), vehicle: Klucel (hydroxypropylcellulose) (HPC) 95 % of control | dose: 12.5 mg/kg/injection, schedule: Q04DX003 (ip), vehicle: saline with Tween-80 94 % of control | dose: 25.0 mg/kg/injection, schedule: Q01DX009 (ip), vehicle: Klucel (hydroxypropylcellulose) (HPC) 92 % of control | dose: 25.0 mg/kg/injection, schedule: Q04DX003 (ip), vehicle: saline with Tween-80 95 % of control | [4] 93 % of control | [5] 93 % of control | dose: 50.0 mg/kg/injection, schedule: Q04DX003 (ip), vehicle: saline with Tween-80 87 % of control | [11] 98 % of control | [6] 95 % of control | [8] 93 % of control | [15] 98 % of control

CCCCN1C(=O)c2c(Cl)c(Cl)c(Cl)c(Cl)c2C1=O
inactive: dose: 200.0 mg/kg/injection, schedule: Q04DX002 (ip), vehicle: other 94 % of control | dose: 400.0 mg/kg/injection, schedule: Q04DX002 (ip), vehicle: other 92 % of control

O=C(O)CNC(=O)c1ccc(NC(=O)CBr)cc1
inactive: [4] 104 % of control | [11] 104 % of control | [8] 109 % of control

CCCCN1C(=O)N(CCCC)C(=O)C(Br)(Br)C1=O
inactive: dose: 50.0 mg/kg/injection, schedule: Q01DX009 (ip), vehicle: saline with Tween-80 97 % of control | dose: 100.0 mg/kg/injection, schedule: Q01DX009 (ip), vehicle: saline with Tween-80 105 % of control | dose: 200.0 mg/kg/injection, schedule: Q01DX009 (ip), vehicle: saline with Tween-80 97 % of control

Cc1cc(N(CCOS(C)(=O)=O)CCOS(C)(=O)=O)ccc1C=Nc1cccc(C(=O)O)c1
inactive: dose: 2.5 mg/kg/injection, schedule: Q04DX003 (ip), vehicle: Klucel (hydroxypropylcellulose) (HPC) 111 % of control | dose: 5.0 mg/kg/injection, schedule: Q04DX003 (ip), vehicle: Klucel (hydroxypropylcellulose) (HPC) 113 % of control | dose: 10.0 mg/kg/injection, schedule: Q04DX003 (ip), vehicle: Klucel (hydroxypropylcellulose) (HPC) 122 % of control | dose: 20.0 mg/kg/injection, schedule: Q04DX003 (ip), vehicle: Klucel (hydroxypropylcellulose) (HPC) 120 % of control | dose: 40.0 mg/kg/injection, schedule: Q04DX003 (ip), vehicle: Klucel (hydroxypropylcellulose) (HPC) 115 % of control

COc1cc([N+](=O)[O-])c(C)cc1NC(=O)c1ccc(OC)c(OC)c1
inactive: dose: 50.0 mg/kg/injection, schedule: Q01DX009 (ip), vehicle: saline 97 % of control | [12] 96 % of control | [7] 89 % of control | [13] 96 % of control | [10] 93 % of control | dose: 400.0 mg/kg/injection, schedule: Q01DX009 (ip), vehicle: saline 97 % of control | [14] 91 % of control

CS(=O)(=O)OCCCS(=O)(=O)O
inactive: [11] 102 % of control

Cc1c2ccc3ccccc3c2cc2cccc(C#N)c12
inactive: dose: 100.0 mg/kg/injection, schedule: Q01DX001 (ip), vehicle: Klucel (hydroxypropylcellulose) (HPC) 106 % of control | dose: 200.0 mg/kg/injection, schedule: Q01DX001 (ip), vehicle: Klucel (hydroxypropylcellulose) (HPC) 98 % of control | dose: 400.0 mg/kg/injection, schedule: Q01DX001 (ip), vehicle: Klucel (hydroxypropylcellulose) (HPC) 98 % of control

CCCCNC(=O)C1CCCC(C(=O)NCCCC)C1 (stereo not given)
inactive: [16] 96 % of control | dose: 150.0 mg/kg/injection, schedule: Q01DX009 (ip), vehicle: saline 102 % of control | dose: 300.0 mg/kg/injection, schedule: Q01DX009 (ip), vehicle: saline 87 % of control

CCN1CCCC(Nc2cc(C)nc(Nc3nc4cc(Cl)c(Cl)cc4[nH]3)n2)C1 (stereo not given)
inactive: dose: 25.0 mg/kg/injection, schedule: Q01DX009 (ip), vehicle: saline with Tween-80 94 % of control | [11] 98 % of control

O=C1NC2C3C=CC(C3)C12 (stereo not given)
inactive: dose: 25.0 mg/kg/injection, schedule: Q04DX002 (ip), vehicle: Klucel (hydroxypropylcellulose) (HPC) 114 % of control | dose: 50.0 mg/kg/injection, schedule: Q04DX002 (ip), vehicle: Klucel (hydroxypropylcellulose) (HPC) 93 % of control | dose: 100.0 mg/kg/injection, schedule: Q04DX002 (ip), vehicle: Klucel (hydroxypropylcellulose) (HPC) 119 % of control and 86 % of control

Cc1nc(N)[nH]c(=O)c1CCCNS(=O)(=O)c1ccc(CN)cc1
inactive: [11] 115 % of control | [8] 98 % of control | [15] 101 % of control

O=C(Nc1ccccc1)Nc1ccc([N+](=O)[O-])cc1O
inactive: dose: 100.0 mg/kg/injection, schedule: Q04DX003 (ip), vehicle: saline with Tween-80 103 % of control | dose: 200.0 mg/kg/injection, schedule: Q04DX003 (ip), vehicle: saline with Tween-80 113 % of control | dose: 400.0 mg/kg/injection, schedule: Q04DX003 (ip), vehicle: saline with Tween-80 100 % of control

CCCCS(=O)CC(O)(c1ccccc1)c1ccccc1 (stereo not given)
inactive: dose: 100.0 mg/kg/injection, schedule: Q03DX002 (ip), vehicle: saline with Tween-80 102 % of control | dose: 200.0 mg/kg/injection, schedule: Q03DX002 (ip), vehicle: saline with Tween-80 105 % of control

CC12CCC(OC3OC(CO)C(O)C(O)C3O)CC1CCC1C2CCC2(C)C(C3=CC(=O)OC3)CCC12O (stereo not given)
inactive: dose: 10.0 mg/kg/injection, schedule: Q01DX009 (ip), vehicle: saline 101 % of control | dose: 20.0 mg/kg/injection, schedule: Q01DX009 (ip), vehicle: saline 96 % of control | dose: 40.0 mg/kg/injection, schedule: Q01DX009 (ip), vehicle: saline 102 % of control

CNC(=O)c1cc(C(=O)NC)c[n+](Cc2c(Cl)cccc2Cl)c1
inactive: dose: 18.75 mg/kg/injection, schedule: Q01DX009 (ip), vehicle: saline 92 % of control | dose: 37.5 mg/kg/injection, schedule: Q01DX009 (ip), vehicle: saline 103 % of control | dose: 37.5 mg/kg/injection, schedule: Q04DX003 (ip), vehicle: saline 100 % of control | dose: 75.0 mg/kg/injection, schedule: Q01DX001 (ip), vehicle: saline 96 % of control | [16] 100 % of control | dose: 75.0 mg/kg/injection, schedule: Q04DX003 (ip), vehicle: saline 105 % of control | dose: 150.0 mg/kg/injection, schedule: Q01DX001 (ip), vehicle: saline 98 % of control | dose: 150.0 mg/kg/injection, schedule: Q04DX003 (ip), vehicle: saline 97 % of control
